Experimental findings from patent US9446151B2, “In vivo imaging of enzymatic activity” (Caliper Life Sciences, Inc., priority 2011, dated 2016) are described below.

Experiment [1] concerns MDA-MB-231-luc2 tumor metastases. As to conditions: Nu/Nu mouse, three weeks after intracardiac injection of 1 million MDA-MB-231-luc2 cells; IVIS imaging. As to the method: A Nu/Nu mouse was intracardiacally injected with 1 million of MDA-MB-231-luc2 cells. At three weeks, the mouse was imaged with an IVIS spectrum following intraperitoneal injection of luciferin (150 mg/kg). […] At 24 hours after luciferin injection when the bioluminescence signal returned to a base line level, this mouse was injected intravenously with luminol.
As inflammation is involved in a broad range of disease process, including tumor development, the utility of the NAC compositions and methods was also tested for tumor detection. In a systemic metastases model through intracardiac injection of MDA-MB-231-luc tumor, metastatic tumor development in lungs and knee joints was also evaluated using NAC compositions. Briefly, a Nu/Nu mouse was injected intracardiacally with 1 million MDA-MB-231-luc2 tumor cells. At three weeks, the mouse was imaged with an IVIS spectrum following intraperitoneal injection of luciferin (150 mg/kg). At 24 hours after luciferin injection when the bioluminescence signal returned to a base line level, this mouse was injected intravenously with luminol.

In experiment [2] the test system is free radical production in the pulmonary tissues. As to conditions: LPS 1 mg/kg intratracheal; intravenous probe; imaging 5 minutes after injection; vs non-LPS control mice given luminol/Quantum dot 800 mixture.
Procedure: Animals were divided into three groups of animals.
An acute inflammatory response in pulmonary tissues was induced by intratracheal delivery of LPS to mice. In particular, LPS was dissolved in sterile PBS to a concentration of 10 mg/ml. LPS (in 50 μl total volume) was delivered to mice intratracheally with a 22-gauge intubator. The final dose of LPS was 1 mg/kg. […] Imaging was performed at 5 minutes after injection.

Regarding `Nc1cccc2c(=O)[nH][nH]c(=O)c12` [luminol], the “detection of tumor metastases (loci)” value in experiment [1] is given as “Tumor metastasis at the knee joint was detected”. Moreover, in experiment [2], the “increase of NAC / lung signal from the pulmonary tissues as compared to control mice” value is on record as “two”.

As to `O=C(O)[C@H]1CSC(c2nc3ccc(O)cc3s2)=N1` [luciferin], the “detection of tumor metastases (loci)” value in experiment [1] was “detected in the lungs, knee joints and cranial region”.
